Entries after “also recorded” stand apart in the source; their conditions may differ.
Assays:
[1] = target: T1, 14-3-3γ/Tau pS324 complex (Homo sapiens, UniProt P61981); assay: Differential scanning fluorimetry of 14-3-3γ with Tau pS324 peptide and compounds; format: binding; details: compound 30 equiv., Tau pS324 10 equiv.
T1 construct: made in house; host or cells: NiCo21 (DE3) E. coli
Method: Fig. 5 a Phospho-site selective 14-3-3/Tau PPI stabilization. b SF250μM of selected compounds for stabilization of the 14-3-3γ complex with Tau pS214 and Tau pS324 peptides based on the internal DMSO reference. Mean of two separately performed experiments (see ESI ^† Fig. S9 for the corresponding binding curves). c Differential scanning fluorimetry assay results. Identified melting temperatures (Tm) of 14-3-3γ in the presence of the Tau pS214 or pS324 peptide and compounds 1 and 18. […]
chromatography (HisTrap high performance cartridges, Cytiva). […] Dialyzed protein was concentrated to ∼40 mg/mL, analyzed by Q -Tof LC/MS, and aliquots were flash -frozen for storage at −80 °C. […]
DSF was performed using 40 µl samples containing 2.5 µM 14 -3-3ζ, 25 µM Tau peptide (Tau pS2, Tau pS214 or Tau pS324), […] (1% DMSO) and 5x ProteoOrange (Lumiprobe, 5000x stock in DMSO) in 10 mM HEPES, 150 mM NaCl, 50 µM TCEP (pH 7.4). […] Fluorescence intensity was determined using excitation ( λem=525/20 nm) and emission ( λex=570/20 nm) filters.
Based on these melting curves, the negative derivative melting curve is obtained from which the melting temperature Tm was determined. All described melting temperatures are based on two or three independent experiments, from which the average and standard deviations were determined. […]

14-3-3γ = 14-3-3γ (Homo sapiens, UniProt P61981); assay: 19F-NMR spectroscopy of fluorinated analogs at varying 14-3-3 concentrations; format: binding; details: 125 μM stabilizer, 14-3-3 0-250 μM, no Tau peptide
Method: Fig. 3 a Dose–response fluorescence anisotropy data of compound titrations to 10 nM FITC-labeled Tau pS2 peptide and 100 nM 14-3-3ζ. […] Mean of three individually performed experiments (see ESI ^† Fig. S8 for the protein titrations). e Differential scanning fluorimetry assay results. Identified melting temperatures (Tm) of 14-3-3γ alone (2.5 μM) and in the presence of Tau pS2 peptide (25 μM) and additionally with selected compounds (75 μM).
This stepwise mechanism has been described in detail for related benzaldehyde stabilizers and the 14-3-3/Pin1 interaction.[34] However, the imidazolyl-benzaldehydes might also show an intrinsic binding affinity for 14-3-3. To elucidate the underlying processes, we performed ^19F-NMR spectroscopy studies (Fig. 3f) with the fluorinated analogs 20 and 21. At a constant stabilizer concentration (125 μM), the 14-3-3 concentration was varied from 0 μM to 250 μM.

Sequence of 14-3-3γ (P61981 whole entry): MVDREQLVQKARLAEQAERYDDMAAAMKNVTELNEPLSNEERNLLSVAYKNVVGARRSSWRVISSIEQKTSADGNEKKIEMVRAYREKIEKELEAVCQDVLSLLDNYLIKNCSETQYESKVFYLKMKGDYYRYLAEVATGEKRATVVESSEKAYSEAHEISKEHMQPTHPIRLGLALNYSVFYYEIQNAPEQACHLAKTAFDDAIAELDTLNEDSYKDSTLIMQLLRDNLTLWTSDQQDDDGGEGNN
T1 sequence (P61981 whole entry, other chains not shown): as the sequence (P61981 whole entry) above

| increase in 14-3-3γ melting temperature on addition of compound, Tau pS324 complex [1] [°C] | Structure (SMILES) | binding to 14-3-3 by 19F-NMR (in words) (14-3-3γ) |
| --- | --- | --- |
| ~0.2 | CCc1ccc(-c2nccn2-c2ccc(C=O)c(Br)c2)cc1 [Compound 18] | – |
| – | O=Cc1ccc(-n2ccnc2-c2ccc(OC(F)(F)F)cc2)cc1Br [Compound 21] | ligand binding to 14-3-3γ; also recorded: formation of the binary 14-3-3/stabilizer complex |
| – | O=Cc1ccc(-n2ccnc2-c2ccc(C(F)(F)F)cc2)cc1Br [Compound 20] | formation of the binary 14-3-3/stabilizer complex |
| ~0.6 | O=Cc1ccc(-n2ccnc2-c2ccccc2)cc1Br [Compound 1] | – |

Reference: publication PMC11892739, “Site-specific molecular glues for the 14-3-3/Tau pS214 protein–protein interaction via reversible covalent imine tethering” (RSC Medicinal Chemistry, 2025)
